Measured values from patent US20240180793A1, “CORE STICK-TYPE OIL DISPERSION SOLID COSMETIC COMPOSITION HAVING IMPROVED SPREADABILITY” (COSMAX, INC., priority 2021, published 2024).
≈ marks a conversion by molar mass, not a printed value.

Biological target: mushroom tyrosinase
Assay: Mushroom tyrosinase inhibition assay (whitening effect)
Type: biochemical
Conditions: mushroom tyrosinase 1000 units/mL, L-tyrosine, pH 6.5, 25° C. for 30 minutes, absorbance at 490 nm
Protocol: Then, the absorbance was recorded at 490 nm by a microplate reader to determine the amount of dopachrome generated. […] The expression of the percentage of tyrosinase activity inhibition is as follows.
Tyrosinase activity inhibitory effect (%)=(1−(A−B)/C)×100 [Equation] • A: Absorbance of sample • B: Absorbance of color control • C: Absorbance of control

SMILES: OC[C@H]1O[C@@H](Oc2ccc(O)cc2)[C@H](O)[C@@H](O)[C@@H]1O [Arbutin]
- IC50 (tyrosinase activity inhibition): 630.1 µg/mL (≈ 2310 µM)
